Reference: patent US9657015B2, “Substituted bicyclic dihydropyrimidinones and their use as inhibitors of neutrophil elastase activity” (Boehringer Ingelheim International GmbH, priority 2014, dated 2017)
In brackets after ≈: the same amount, converted by molar mass.

Legend:
[1] = molecular target: Human neutrophil elastase (Homo sapiens (Human), UniProt P08246); assay: Human Neutrophil Elastase Assay; assay type: biochemical; details: substrate MeOSuc-Ala-Ala-Pro-Val-AMC 250 μM, pH 7.5, room temperature
Method: The following buffers were used: Compound buffer: 100 mM Tris, 500 mM NaCl, adjusted to pH 7.5; Assay buffer: 100 mM Tris, 500 mM NaCl, adjusted to pH 7.5, containing 0.01% BSA.
Assay conditions: Test compounds were prediluted in DMSO and subsequently in compound buffer (5% DMSO final). […] After inactivation of the enzyme, fluorescence intensities were measured at 380 nm excitation and 460 nm emission wavelengths.
Each plate contains wells with a high value control (DMSO+enzyme+substrate) and wells with a low value control (DMSO+inactivated enzyme+substrate). IC50 values were estimated using a sigmoidal concentration response curve with variable slope. Means of low values were taken as 0%, means of high values as 100%.

[2] = Drug transport across human Caco-2 cells; assay type: in vitro ADME; details: human, Caco-2 monolayers, pH 7.2, 37° C.; for Papp A→B at 10 µM: apical-to-basal, read-out: PEAB; for Papp B→A at 10 µM: basal-to-apical, read-out: PEBA
From the text: Assay for Determination of Drug Transport Across Human Caco-2 Cells
The assay provides information on the potential of a compound to pass the cell membrane, on the extent of oral absorption as well as on whether the compound is actively transported by uptake and/or efflux transporters. For the measurement of permeability across polarized, confluent human cancer colon carcinoma cells 2 (Caco-2) cell monolayers grown on permeable filter supports are used as the in vitro absorption model.
Apparent permeability coefficients (PE) of the compounds across the Caco-2 monolayers are measured (pH 7.2, 37° C.) in apical-to-basal (AB) (absorptive) and basal-to-apical (BA) (secretory) transport direction. AB permeability (PEAB) represents drug absorption from the intestine into the blood and BA permeability (PEBA) drug secretion from the blood back into the intestine via both passive permeability as well as active transport mechanisms mediated by efflux and uptake transporters that are expressed on the Caco-2 cells. The compounds are assigned to permeability/absorption classes by comparison of the AB permeabilities with the AB permeabilities of reference compounds with known in vitro permeability and oral absorption in the human. Identical or similar permeabilities in both transport directions indicate passive permeation, vectorial permeability points to additional active transport mechanisms. […] Active transport is concentration-dependently saturable.
Caco-2 cells (1-2*10^5 cells/cm^2 area) are seeded on filter inserts (Costar transwell polycarbonate or PET filters, 0.4 μm pore size) and cultured (DMEM) for 10 to 25 days. Compounds are dissolved in appropriate solvent (like DMSO, 1-20 mM stock solutions). Stock solutions are diluted with HTP-4 buffer (128.13 mM NaCl, 5.36 mM KCl, 1 mM MgSO4, 1.8 mM CaCl2, 4.17 mM NaHCO3, 1.19 mM Na2HPO4×7H2O, 0.41 mM NaH2PO4×H2O, 15 mM HEPES, 20 mM glucose, pH 7.2) to prepare the transport solutions (typically 10 μM compound, final DMSO<=0.5%). The transport solution (TL) is applied to the apical or basolateral donor side for measuring A-B or B-A permeability (3 filter replicates), respectively. The receiver side contains HTP-4 buffer supplemented with 2% BSA. Samples are collected at the start and end of experiment from the donor and at various time intervals for up to 2 hours also from the receiver side for concentration measurement by LC-MS/MS or scintillation counting. Sampled receiver volumes are replaced with fresh receiver solution.
The apparent permeability coefficients (PEAB and PEBA) of selected compounds in the Caco-2 drug transport assay described above are listed in Table 9.

[3] = Metabolic stability with human liver microsomes; assay type: in vitro ADME; details: pH 7.6; pooled human liver microsomes, 37° C., 1 μM test compound, 1 mg/ml microsomal protein, NADPH; read-out: t1/2 INVITRO
[4] = Aqueous solubility (High Throughput Method); assay type: physicochemical; details: McIlvaine buffer pH 6.8 with 2.5% DMSO, aqueous buffer, kinetic from dmso stock; McIlvaine buffer pH 6.8, 2.5% DMSO, 24 h shaking
Method: Assay for Determination of Aqueous Solubility (“High Throughput Method”)
Starting from a 10 mM DMSO stock solution, aliquots are diluted with acetonitrile/water (1/1) and McIlvaine buffer pH 6.8, respectively. After 24 h of shaking, the solutions or suspensions are filtered and analyzed by LC-UV. The amount dissolved in buffer is compared to the amount dissolved in the acetonitrile/water (1/1) solution. Solubility is measured from 0.001 to 0.125 mg/ml at a DMSO concentration of 2.5%. If more than 90% of the compound is dissolved in buffer, the value is marked with “>”.

[5] = molecular target: neutrophil elastase in human plasma (Homo sapiens (Human), UniProt P08246); assay: Neutrophil elastase inhibitory activity in human plasma; assay type: biochemical; details: human plasma assay (zymosan-stimulated blood plasma), substrate 250 μM, pH 7.5
neutrophil elastase in human plasma, sequence (P08246 30-247): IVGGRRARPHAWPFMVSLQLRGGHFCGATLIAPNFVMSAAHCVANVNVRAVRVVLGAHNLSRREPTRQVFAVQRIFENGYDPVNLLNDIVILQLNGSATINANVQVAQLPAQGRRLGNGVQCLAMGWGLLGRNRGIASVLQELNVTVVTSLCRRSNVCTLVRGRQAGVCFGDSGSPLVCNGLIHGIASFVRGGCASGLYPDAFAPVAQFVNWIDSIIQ
Method: Assay for the Determination of Neutrophil Elastase Inhibitory Activity in Human Plasma
Citrated blood from human healthy donors is mixed with zymosan suspension and incubated at room temperature. This leads to the stimulation of neutrophils and the release of neutrophil elastase into the plasma. The stimulated blood is centrifuged to generate the neutrophil elastase enriched plasma.
Preparation of Zymosan Working Solution:
Various concentrations of the neutrophil elastase inhibitor are incubated with plasma. […] A dose response curve is generated to calculate the EC50 of the inhibitor.

Human neutrophil elastase, sequence (P08246 30-247): as above

Structure (SMILES)	IC50 [1]	Papp A→B at 10 µM [2]	Papp B→A at 10 µM [2]	half-life at 1 μM [3]	solubility at 24 h [4]	IC50 [5]
N#Cc1ccc([C@H]2NC(=O)N(c3cccc(C(F)F)c3)C3=C2C(=O)NCC3)cc1 [Example 2A, (R)-4-(1-(3-(Difluoromethyl)phenyl)-2,5-dioxo-1,2,3,4,5,6,7,8-octahydropyrido[4,3-d]-pyrimidin-4-yl)benzonitrile]	3.2 nM	4.7 ×10⁻⁶ cm/s	31 ×10⁻⁶ cm/s	> 2.17 h	> 92 µg/mL	5.4 nM
CN1CCC2=C(C1=O)[C@@H](c1ccc(C#N)cc1)NC(=O)N2c1cccc(C(F)(F)F)c1 [Example 4A, (R)-4-(6-Methyl-2,5-dioxo-1-(3-(trifluoromethyl)phenyl)-1,2,3,4,5,6,7,8-octahydropyrido[4,3-d]pyrimidin-4-yl)benzonitrile]	1.3 nM	17 ×10⁻⁶ cm/s	34 ×10⁻⁶ cm/s	> 2.17 h	> 89 µg/mL	2.7 nM
CN1C(=O)N(c2cccc(C(F)(F)F)c2)C2=C(C(=O)NCC2)[C@H]1c1ccc(C#N)cc1 [Example 6, (R)-4-(3-Methyl-2,5-dioxo-1-(3-(trifluoromethyl)phenyl)-1,2,3,4,5,6,7,8-octahydropyrido[4,3-d]pyrimidin-4-yl)benzonitrile]	< 1 nM	37 ×10⁻⁶ cm/s	80 ×10⁻⁶ cm/s	> 2.17 h	> 88 µg/mL	1 nM
CNC(=O)CN1C(=O)N(c2cccc(C(F)(F)F)c2)C2=C(C(=O)N(C)CC2)C1c1ccc(C#N)cc1 (centres unmarked) [Example 15, 2-(4-(4-Cyanophenyl)-6-methyl-2,5-dioxo-1-(3-(trifluoromethyl)phenyl)-1,2,5,6,7,8-hexahydropyrido[4,3-d]pyrimidin-3(4H)-yl)-N-methylacetamide]	3.2 nM	–	–	–	–	7.8 nM
CN(C)C(=O)CN1C(=O)N(c2cccc(C(F)(F)F)c2)C2=C(C(=O)N(C)CC2)C1c1ccc(C#N)cc1 (centres unmarked) [Example 15.1]	< 1 nM	–	–	–	–	2.6 nM
CNC(=O)N1C(=O)N(c2cccc(C(F)(F)F)c2)C2=C(C(=O)NCC2)C1c1ccc(C#N)cc1 (centres unmarked) [Example 16, 4-(4-Cyanophenyl)-N-methyl-2,5-dioxo-1-(3-(trifluoromethyl)phenyl)-1,2,5,6,7,8-hexahydropyrido[4,3-d]pyrimidine-3(4H)-carboxamide]	< 1 nM	–	–	–	–	2.4 nM
N#Cc1ccc(C2C3=C(CCNC3=O)N(c3cccc(C(F)(F)F)c3)C(=O)N2C(=O)NCCO)cc1 (centres unmarked) [Example 17, 4-(4-Cyanophenyl)-N-(2-hydroxyethyl)-2,5-dioxo-1-[3-(trifluoromethyl)phenyl]-1H,2H,3H,4H,5H,6H,7H,8H-pyrido[4,3-d]pyrimidine-3-carboxamide]	< 1 nM	–	–	–	–	< 1 nM
N#Cc1ccc(C2NC(=O)N(c3cccc(C(F)(F)F)c3)C3=C2C(=O)N(C(=O)NCCO)CC3)cc1 (centres unmarked) [Example 18, 4-(4-Cyanophenyl)-N-(2-hydroxyethyl)-2,5-dioxo-1-[3-(trifluoromethyl)phenyl]-1H,2H,3H,4H,5H,6H,7H,8H-pyrido[4,3-d]pyrimidine-6-carboxamide]	3.8 nM	–	–	–	–	6.7 nM
CCNC(=O)N1CCC2=C(C1=O)C(c1ccc(C#N)cc1)NC(=O)N2c1cccc(C(F)(F)F)c1 (centres unmarked) [Example 19, 4-(4-Cyanophenyl)-N-ethyl-2,5-dioxo-1-[3-(trifluoromethyl)phenyl]-1H,2H,3H,4H,5H,6H,7H,8H-pyrido[4,3-d]pyrimidine-6-carboxamide]	4.9 nM	–	–	–	–	18 nM
N#Cc1ccc(C2NC(=O)N(c3cccc(C(F)(F)F)c3)C3=C2C(=O)N(C(=O)NCCCO)CC3)cc1 (centres unmarked) [Example 20, 4-(4-Cyanophenyl)-N-(3-hydroxypropyl)-2,5-dioxo-1-[3-(trifluoromethyl)phenyl]-1H,2H,3H,4H,5H,6H,7H,8H-pyrido[4,3-d]pyrimidine-6-carboxamide]	3.7 nM	–	–	–	–	6.9 nM
N#Cc1ccc(C2NC(=O)N(c3cccc(C(F)(F)F)c3)C3=C2C(=O)NCC3)c(Br)c1 (centres unmarked) [Example 21, 3-Bromo-4-{2,5-dioxo-1-[3-(trifluoromethyl)phenyl]-1H,2H,3H,4H,5H,6H,7H,8H-pyrido[4,3-d]pyrimidin-4-yl}benzonitrile]	1.9 nM	–	–	–	–	1.9 nM
CN1C(=O)N(c2cccc(C(F)(F)F)c2)C2=C(C(=O)NCC2)C1c1ccc(C#N)cc1Br (centres unmarked) [Example 22, 3-Bromo-4-{3-methyl-2,5-dioxo-1-[3-(trifluoromethyl)phenyl]-1H,2H,3H,4H,5H,6H,7H,8H-pyrido[4,3-d]pyrimidin-4-yl}benzonitrile]	< 1 nM	–	–	–	–	2.5 nM
N#Cc1ccc(C2NC(=O)N(c3cccc(C(F)(F)F)c3)C3=C2C(=O)NCC3)c(-c2cnco2)c1 (centres unmarked) [Example 23, 4-{2,5-Dioxo-1-[3-(trifluoromethyl)phenyl]-1H,2H,3H,4H,5H,6H,7H,8H-pyrido-[4,3-d]pyrimidin-4-yl}-3-(1,3-oxazol-5-yl)benzonitrile]	< 1 nM	–	–	–	–	1.1 nM
Cn1cc(-c2cc(C#N)ccc2C2NC(=O)N(c3cccc(C(F)(F)F)c3)C3=C2C(=O)NCC3)cn1 (centres unmarked) [Example 24, 4-{2,5-Dioxo-1-[3-(trifluoromethyl)phenyl]-1H,2H,3H,4H,5H,6H,7H,8H-pyrido-[4,3-d]pyrimidin-4-yl}-3-(1-methyl-1H-pyrazol-4-yl)benzonitrile]	< 1 nM	–	–	–	–	1.4 nM
N#Cc1ccc(C2NC(=O)N(c3cccc(C(F)(F)F)c3)C3=C2C(=O)NCC3)c(C(F)(F)F)c1 (centres unmarked) [Example 27, 4-{2,5-Dioxo-1-[3-(trifluoromethyl)phenyl]-1H,2H,3H,4H,5H,6H,7H,8H-pyrido-[4,3-d]pyrimidin-4-yl}-3-(trifluoromethyl)benzonitrile]	< 1 nM	–	–	–	–	< 1 nM
CN1C(=O)N(c2cccc(C(F)(F)F)c2)C2=C(C(=O)NCC2)C1c1ccc(C#N)cc1C(F)(F)F (centres unmarked) [Example 28, 4-{3-Methyl-2,5-dioxo-1-[3-(trifluoromethyl)phenyl]-1H,2H,3H,4H,5H,6H,7H,8H-pyrido[4,3-d]pyrimidin-4-yl}-3-(trifluoromethyl)benzonitrile]	< 1 nM	–	–	–	–	1.1 nM
CN1C(=O)N(c2cccc(C(F)(F)F)c2)C2=C(C(=O)NCC2)C1c1ccc(C#N)cc1-c1ccncc1 (centres unmarked) [Example 33, 4-{3-Methyl-2,5-dioxo-1-[3-(trifluoromethyl)phenyl]-1H,2H,3H,4H,5H,6H,7H,8H-pyrido[4,3-d]pyrimidin-4-yl}-3-(pyridin-4-yl)benzonitrile]	< 1 nM	–	–	–	–	5.3 nM
CN1CCC2=C(C1=O)C(c1ccc(C#N)cc1CO)N(C)C(=O)N2c1cccc(C(F)(F)F)c1 (centres unmarked) [Example 38, 4-{3,6-Dimethyl-2,5-dioxo-1-[3-(trifluoromethyl)phenyl]-1H,2H,3H,4H,5H,6H,7H,8H-pyrido[4,3-d]pyrimidin-4-yl}-3-(hydroxymethyl)benzonitrile]	< 1 nM	24 ×10⁻⁶ cm/s	91 ×10⁻⁶ cm/s	–	89 µg/mL (≈ 189 µM)	1.4 nM
CN1CCC2=C(C1=O)C(c1ccc(C#N)cc1-c1ccc(=O)n(C)n1)N(C)C(=O)N2c1cccc(C(F)(F)F)c1 (centres unmarked) [Example 41, 4-{3,6-Dimethyl-2,5-dioxo-1-[3-(trifluoromethyl)phenyl]-1H,2H,3H,4H,5H,6H,7H,8H-pyrido[4,3-d]pyrimidin-4-yl}-3-(1-methyl-6-oxo-1,6-dihydropyridazin-3-yl)-benzonitrile]	–	6 ×10⁻⁶ cm/s	91 ×10⁻⁶ cm/s	> 2.17 h	93 µg/mL (≈ 170 µM)	1 nM
